Reference: patent publication US12240855B2, “Pyrrolopyrazole derivative” (DAIICHI SANKYO COMPANY, LIMITED, priority 2019, dated 2025)

System: HCT116 cells
Assay: cells
Details: Homo sapiens, HCT-116, 72 h, read-out: Test Example 3 HCT116 GI50
Procedure: McCoy's 5A medium containing 10% bovine serum was used as the culture medium for each cell. […] They were added to each well of 384-well plates at 40 nL/well using an Echo555 (Labcyte Inc.). […] On the day of compound addition (day 0) and 3 days after compound addition (day 3), 10 μL/well of CellTiter-Glo® 2.0 Assay (Promega, #G9242), which is a reagent for ATP measurement, was added to each well, and the amount of luminescence in each well was measured with EnVision. From the amount of luminescence on the day of compound addition (C0) and the amount of luminescence of the compound non-addition group (C3) and compound addition group (T3) after 3 days of culture, cell viability was calculated based on the following formula. Cell viability (%)=[(T3−C0)/(C3−C0)]×100

| Structure (SMILES) | GI50 |
| --- | --- |
| CC(F)(F)CN1C(=O)c2[nH]nc(-c3cccc(NC=O)c3)c2C1c1ccc(Cl)cc1 (stereo not drawn) [Example 92, N-{3-[4-(4-Chlorophenyl)-5-(2,2-difluoropropyl)-6-oxo-1,4,5,6-tetrahydropyrrolo[3,4-c]pyrazol-3-yl]phenyl}formamide] | 11 µM |
| O=C1c2[nH]nc(-c3cccc4[nH]c(=O)oc34)c2C(c2cccc(OC3CCC(F)(F)CC3)c2)N1CC1CC1 (stereo not drawn) [Example 7, 7-[5-(Cyclopropylmethyl)-4-{3-[(4,4-difluorocyclohexyl)oxy]phenyl}-6-oxo-1,4,5,6-tetrahydropyrrolo[3,4-c]pyrazol-3-yl]-1,3-benzoxazol-2(3H)-one] | 15 µM |
| Cc1nc(C2c3c(-c4cccc5[nH]c(=O)oc45)n[nH]c3C(=O)N2CC(C)(F)F)ccc1F (single isomer, unassigned) [Example 23, 7-[5-(2,2-Difluoropropyl)-4-(5-fluoro-6-methylpyridin-2-yl)-6-oxo-1,4,5,6-tetrahydropyrrolo[3,4-c]pyrazol-3-yl]-1,3-benzoxazol-2(3H)-one (enantiomer)] | > 25 µM |
| CC(F)(F)CN1C(=O)c2[nH]nc(-c3cccc4[nH]c(=O)oc34)c2C1c1ccc(Oc2ccc(Cl)cc2)cn1 (stereo not drawn) [Example 77, 7-{4-[5-(4-Chlorophenoxy)pyridin-2-yl]-5-(2,2-difluoropropyl)-6-oxo-1,4,5,6-tetrahydropyrrolo[3,4-c]pyrazol-3-yl]-1,3-benzoxazol-2(3H)-one] | > 25 µM |
| CC(F)(F)CN1C(=O)c2[nH]nc(-c3cccc4[nH]c(=O)oc34)c2C1c1cc(Oc2ccc(F)cc2)ccn1 (stereo not drawn) [Example 78, 7-{5-(2,2-Difluoropropyl)-4-[4-(4-fluorophenoxy)pyridin-2-yl]-6-oxo-1,4,5,6-tetrahydropyrrolo[3,4-c]pyrazol-3-yl}-1,3-benzoxazol-2(3H)-one] | > 25 µM |
| CC(F)(F)CN1C(=O)c2[nH]nc(-c3cccc4[nH]c(=O)oc34)c2C1c1ccc2c(cnn2-c2ccccc2)c1 (stereo not drawn) [Example 88, 7-[5-(2,2-Difluoropropyl)-6-oxo-4-(1-phenyl-1H-indazol-5-yl)-1,4,5,6-tetrahydropyrrolo[3,4-c]pyrazol-3-yl]-1,3-benzoxazol-2(3H)-one] | 7.9 µM |
| O=C1c2[nH]nc(-c3cccc4[nH]c(=O)oc34)c2C(c2ccc(Oc3ccc(Cl)cc3)cc2)N1CC1CC1 (single isomer, unassigned) [Example 2, 7-{4-[4-(4-Chlorophenoxy)phenyl]-5-(cyclopropylmethyl)-6-oxo-1,4,5,6-tetrahydropyrrolo[3,4-c]pyrazol-3-yl}-1,3-benzoxazol-2(3H)-one (enantiomer)] | 10 µM |
| O=C1c2[nH]nc(-c3cc(Oc4ccccc4)cc4[nH]c(=O)oc34)c2C(c2ccc(F)cc2)N1CC(F)(F)F (stereo not drawn) [Example 15, 7-[4-(4-Fluorophenyl)-6-oxo-5-(2,2,2-trifluoroethyl)-1,4,5,6-tetrahydropyrrolo[3,4-c]pyrazol-3-yl]-5-phenoxy-1,3-benzoxazol-2(3H)-one] | > 25 µM |
| CC(F)(F)CN1C(=O)c2[nH]nc(-c3cccc4[nH]c(=O)oc34)c2C1c1ccc(C(F)(F)c2ccccc2)cc1 (stereo not drawn) [Example 91, 7-[4-{4-[Difluoro(phenyl)methyl]phenyl}-5-(2,2-difluoropropyl)-6-oxo-1,4,5,6-tetra hydropyrrolo[3,4-c]pyrazol-3-yl]-1,3-benzoxazol-2(3H)-one] | 15 µM |
| CC(F)(F)CN1C(=O)c2[nH]nc(-c3cccc4[nH]c(=O)oc34)c2C1c1ccc(CN2CCC(F)(F)CC2)cc1 (single isomer, unassigned) [Example 83, 7-[4-{4-[(4,4-Difluoropiperidin-1-yl)methyl]phenyl}-5-(2,2-difluoropropyl)-6-oxo-1,4,5,6-tetrahydropyrrolo[3,4-c]pyrazol-3-yl]-1,3-benzoxazol-2(3H)-one (enantiomer)] | > 25 µM |
| CCC(F)(F)CN1C(=O)c2[nH]nc(-c3cccc4[nH]c(=O)oc34)c2C1c1ccc(F)cc1 (stereo not drawn) [Example 11, 7-[5-(2,2-Difluorobutyl)-4-(4-fluorophenyl)-6-oxo-1,4,5,6-tetrahydropyrrolo[3,4-c]pyrazol-3-yl]-1,3-benzoxazol-2(3H)-one] | > 25 µM |
| CC(F)(F)CN1C(=O)c2[nH]nc(-c3cccc4[nH]c(=O)oc34)c2C1c1cnc(C(F)(F)F)s1 (single isomer, unassigned) [Example 24, 7-{5-(2,2-Difluoropropyl)-6-oxo-4-[2-(trifluoromethyl)-1,3-thiazol-5-yl]-1,4,5,6-tetrahydropyrrolo[3,4-c]pyrazol-3-yl}-1,3-benzoxazol-2(3H)-one (enantiomer)] | > 25 µM |
| CC(F)(F)CN1C(=O)c2[nH]nc(-c3cccc4[nH]c(=O)oc34)c2C1c1ccc(Oc2cc(C(F)(F)F)cc(C(F)(F)F)c2)cc1F (single isomer, unassigned) [Example 66, 7-[4-{4-[3,5-Bis(trifluoromethyl)phenoxy]-2-fluorophenyl}-5-(2,2-difluoropropyl)-6-oxo-1,4,5,6-tetrahydropyrrolo[3,4-c]pyrazol-3-yl]-1,3-benzoxazol-2(3H)-one (enantiomer)] | > 25 µM |
| CC(F)(F)CN1C(=O)c2[nH]nc(-c3cccc4[nH]c(=O)oc34)c2C1c1ccnc(Oc2ccccc2)c1 (stereo not drawn) [Example 72, 7-[5-(2,2-Difluoropropyl)-6-oxo-4-(2-phenoxypyridin-4-yl)-1,4,5,6-tetrahydropyrrolo[3,4-c]pyrazol-3-yl]-1,3-benzoxazol-2(3H)-one] | > 25 µM |
| O=C1c2[nH]nc(-c3cccc4[nH]c(=O)oc34)c2C(c2cccc(Oc3ccc(Cl)cn3)c2)N1CC1CC1 (stereo not drawn) [Example 3] | 13 µM |
| O=C1c2[nH]nc(-c3ccc(F)c4[nH]c(=O)oc34)c2C(c2cc(Oc3ccccc3)ccc2F)N1CC(F)(F)F (stereo not drawn) [Example 16, 4-Fluoro-7-[4-(2-fluoro-5-phenoxy]phenyl)-6-oxo-5-(2,2,2-trifluoroethyl)-1,4,5,6-tetrahydropyrrolo[3,4-c]pyrazol-3-yl-1,3-benzoxazol-2(3H)-one] | > 25 µM |
| O=C1c2[nH]nc(-c3cccc4[nH]c(=O)oc34)c2C(c2cccc(Oc3ccccc3)c2)N1Cc1ncco1 (stereo not drawn) [Example 12, 7-{5-[(1,3-Oxazol-2-yl)methyl]-6-oxo-4-(3-phenoxyphenyl)-1,4,5,6-tetrahydropyrrolo[3,4-c]pyrazol-3-yl}-1,3-benzoxazol-2(3H)-one] | > 25 µM |
| CC(F)(F)CN1C(=O)c2[nH]nc(-c3cccc(NC(N)=O)c3)c2C1c1ccc(Cl)cc1 (stereo not drawn) [Example 93, N-{3-[4-(4-Chlorophenyl)-5-(2,2-difluoropropyl)-6-oxo-1,4,5,6-tetrahydropyrrolo[3,4-c]pyrazol-3-yl]phenyl}urea] | > 25 µM |
